# In US5484940A, “Substituted 3-indolyl-5-pyrazolone compounds” (priority 1994, dated 1996):
# How the values were obtained:
# Ultraviolet absorption = type: physicochemical; conditions: 0.1 mg/mL in methanol, 1 cm quartz cuvette
# Experimental: The ultraviolet (UV) absorption properties of two representative substituted 3-indolyl-5-pyrazolones were evaluated and compared to indomethacin [1-(4-chlorobenzoyl)-5-methoxy-2-methyl-^1 H-indole-3-acetic acid], a compound known to absorb UV light (See page 4855 of the Merck Index, 10th Edition, Windholz, et al. Editor (1983)). Specifically, 0.1 mg/mL of 3-indolyl-5-pyrazolone (Ex. 9 or 33) or indomethacin in methanol was added to a quartz cuvette (1 cm) and the UV absorption of this solution was then measured at a wavelength of from 200 nm to 800 nm (Examples 9 and 33) and from 190 nm to 800 nm.
# [1] = system: β-amyloid peptide production; assay: Cellular screen for inhibitors of β-amyloid production (ELISA, 293 751 SWE cells); type: cell-based, human; conditions: 2 h pretreatment + 2 h, normalized for cytotoxicity (MTT), concentration not given
# In short: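 293 751 SWE cells (K293 stably expressing APP751 Swedish mutant) pretreated 2 h with compound, then fresh compound-containing medium for 2 h more at 37 °C. Secreted β-amyloid in conditioned medium quantified by sandwich ELISA (capture 266 anti-Aβ13-28, labelled 6C6 anti-Aβ1-16) against a standard curve as ng/mL; mean ± SD of ≥6 replicates.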
# 293 751 SWE cells = assay: Cytotoxicity (MTT) in 293 751 SWE cells; type: cell-based, human; conditions: concentration not given
# In short: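 Used HEK293 cells stably expressing APP751 carrying the Swedish double mutation (K651N/M652L), plated at 1.5-2.5×10^4 cells/well in DMEM + 10% FBS. MTT was added to a final 1 mg/mL for 1 h at 37 °C, then lysed in SDS/DMF (pH 4.7) overnight. Viability was read as OD562 − OD650.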
# 5-lipoxygenase = biological target: T1, 5-lipoxygenase (Rattus norvegicus, UniProt P12527); assay: 5-Lipoxygenase inhibition (5-HETE radioimmunoassay); type: biochemical; conditions: crude enzyme from RBL-1 cells, read-out: Percent Inhibition (5-lipoxygenase)
# T1 construct: crude 5-lipoxygenase enzyme from rat basophilic leukemia cells (RBL-1); endogenous in cells; host or cells: RBL-1 (rat basophilic leukemia cells), crude enzyme
# T1 sequence (P12527 1-673): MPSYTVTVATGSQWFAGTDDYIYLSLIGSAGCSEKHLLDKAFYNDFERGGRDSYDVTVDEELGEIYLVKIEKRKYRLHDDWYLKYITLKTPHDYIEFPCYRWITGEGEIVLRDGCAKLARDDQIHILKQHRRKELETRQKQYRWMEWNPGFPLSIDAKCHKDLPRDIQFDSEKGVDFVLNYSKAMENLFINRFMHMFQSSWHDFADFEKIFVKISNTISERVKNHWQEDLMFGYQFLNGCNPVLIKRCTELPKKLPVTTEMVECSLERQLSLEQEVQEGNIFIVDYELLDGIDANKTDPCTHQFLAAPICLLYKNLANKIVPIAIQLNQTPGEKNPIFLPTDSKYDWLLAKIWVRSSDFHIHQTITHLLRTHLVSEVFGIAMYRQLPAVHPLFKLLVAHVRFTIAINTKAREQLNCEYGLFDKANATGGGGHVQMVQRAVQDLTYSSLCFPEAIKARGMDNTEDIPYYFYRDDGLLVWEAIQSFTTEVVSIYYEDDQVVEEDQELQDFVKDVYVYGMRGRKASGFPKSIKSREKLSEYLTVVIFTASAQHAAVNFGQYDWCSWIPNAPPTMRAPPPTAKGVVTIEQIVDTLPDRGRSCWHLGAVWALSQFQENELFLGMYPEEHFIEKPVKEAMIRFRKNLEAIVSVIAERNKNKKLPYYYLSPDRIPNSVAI
# Experimental: 5-Lipoxygenase catalyzes the oxidative metabolism of arachidonic acid to 5-hydroperoxyeicosatetraenoid acid ([…]), the initial reaction leading to the formation of the leukotrienes^18. Accordingly, compounds inhibiting 5-lipoxygenase activity are art recognized to have anti-inflammatory properties.
# The ability of test compounds to inhibit 5-lipoxygenase activity was determined in assays^19 using crude 5-lipoxygenase enzyme from rat basophilic leukemia cells (RBL-1). Test compounds are pre-incubated with the enzyme for 5 minutes at room temperature and the reaction is initiated by addition of substrate (arachidonic acid). Following an 8 minute incubation at room temperature, the reaction is terminated by addition of citric acid, and levels of 5-HETE determined by 5-HETE radioimmunoassay.
# human cortical neurons = assay: Inhibition of toxicity of β-amyloid peptide to human neuronal cells (alamarBlue); type: cell-based; conditions: 50 μM β-amyloid peptide, 2-3 days; on average where more than one duplicate experiment; compound concentration not stated
# Experimental: (§1) The purpose of this test is to determine the effect of 3-indolyl-5-pyrazolone compounds on the toxicity of β-amyloid peptide to neuronal cells.
# Primary Human Cortical Cell Culture
# Primary human cortical cultures were prepared using a modification of the procedure described by Seubert, et al.^21 Following filtration through Nitex nylon screens, cortical tissue was resuspended in a trypsin/EDTA solution (0.05% trypsin+0.53 mM EDTA in HBSS; GIBCO Laboratories, Grand Island, N.Y., USA) and kept at 37° C. for 20 minutes. The trypsin was then inactivated by resuspending the cells in serum-containing medium (MEM/FBS: Modified Eagles' Medium (MEM) containing 1% glucose, 1 mM sodium pyruvate, 1 mM glutamine, and supplemented with 10% fetal bovine serum (GIBCO). Cells were then pelleted by centrifugation and resuspended in a chemically-defined medium (MEM/B27: MEM containing B27 supplement in place of FBS; GIBCO). Polyethyleneimine (PEI; Sigma Chemical Company, St. Louis, Mo., USA)-coated 6.4 mm (96-well) dishes were rinsed once with MEM/FBS, and then seeded at 0.75 to 1.25×10^5 cells per well in 0.1 mL MEM/B27. Cultures were maintained in a H2 O-saturated incubator with an atmosphere of 95% air/5% CO 2 at 37° C. The culture medium was exchanged twice weekly. Cell viability was visually assessed by phase contrast microscopy and quantified by measuring the reduction of alamarBlue™ (Alamar Biosciences, Inc., Sacramento, Calif., USA).
# (§2) β-amyloid peptide stock solutions were prepared as 1 mM stocks in sterile, doubly distilled water immediately prior to addition to cultures. Rat cortical neurons were exposed to β-amyloid peptide by removing the culture medium and replacing it with DMEM/N2 (GIBCO Laboratories,Grand Island, N.Y., USA) containing 10 to 20 μM β-amyloid peptide. Human cortical neurons were exposed to test compound plus β-amyloid peptide by removing the culture medium and replacing it with MEM containing 50 μM β-amyloid peptide. Cultures were maintained for 2-3 days before neuronal survival was quantified using alamarBlue™.
# (§3) The alamarBlue™ assay incorporates a fluorometric/colorimetric metabolic indicator (Alamar Biosciences, Inc. Sacramento, Calif., USA). Viable cells convert alamarBlue™ from an oxidized (non-fluorescent, blue) form to a reduced (fluorescent, red) form. Assays were preformed by replacing the culture media with a 10% alamarBlue™ solution in DMEM (rat cortical cultures) or MEM (human cortical cultures).
# rat cortical neurons = assay: Inhibition of toxicity of β-amyloid peptide to rat neuronal cells (alamarBlue); type: cell-based; conditions: 10 to 20 μM β-amyloid peptide, 2-3 days; on average where more than one duplicate experiment; compound concentration not stated
# Experimental: as §1
# Primary rat cortical cultures were established from 18 day rat fetuses. Cortical tissue was dissociated by incubation in a trypsin/EDTA solution (0.05% trypsin+0.53 mM EDTA in HBSS; GIBCO Laboratories, Grand Island, N.Y., USA) for 20 minutes at 37° C. The trypsin was then inactivated by resuspending the cells in serum-containing medium (DMEM/FBS): Dulbecco's Modified Eagles' Medium (DMEM) containing 4.5 g/L glucose, 1 mM sodium pyruvate, 1 mM glutamine, 100 Units/mL penicillin, 100 μg/mL streptomycin, and supplemented with 10% heat-inactivated fetal bovine serum (GIBCO Laboratories, Grand Island, N.Y., USA). Cells were then pelleted by centrifugation and resuspended in a chemically-defined medium (DMEM/B27: DMEM containing B27 supplement; GIBCO Laboratories, Grand Island, N.Y., USA) in place of FBS. Polyethyleneimine (PEI; Sigma Chemical Company, St. Louis, Mo., USA)-coated 6.4 mm (96-well) dishes were timed once with DMEM/FBS, and then seeded at 0.75 to 1.25×10^5 cells per well in 0.1 mL DMEM/B27. Cultures were maintained in a H2 O-saturated incubator with an atmosphere of 90% air/10% CO2 at 37° C. Cell viability was visually assessed by phase contrast microscopy and quantified by measuring the reduction of alamarBlue™ (Alamar biosciences, Inc., Sacramento, Calif., USA) as described below. Serum replacement with B27 supplement yields nearly pure neuronal cultures as judged by immunocytochemistry for glial fibrillary acidic protein and neuron-specific enolase (Brewer, et al.^20)
# as §2, §3
Abs (at λmax) (Ultraviolet absorption),E = Extinction coefficient (Ultraviolet absorption),λmax (Ultraviolet absorption),λother (shoulder) (Ultraviolet absorption),inhibition at 6 µM (5-lipoxygenase; 6 μM compound),inhibition at 7.5 µM (5-lipoxygenase; 7.5 μM compound),Compound,reduction of β-amyloid peptide production as compared to control [1],cytotoxic effect on the 293 751 SWE cells (293 751 SWE cells),inhibition of the toxicity of β-amyloid peptide to human neuronal cells (human cortical neurons),inhibition of the toxicity of β-amyloid peptide to rat neuronal cells (rat cortical neurons)
2.3299,23.29 AU/mg/mL/cm,251 nm,318 nm,75%,,"COc1ccc2c(c1)c(CC1=NN(C3CCCCC3)C(=O)C1)c(C)n2C(=O)c1ccc(Cl)cc1 [Example 9, 3-[1-(4-chlorobenzoyl)-5-methoxy-2-methyl-3-indolylmethyl]-1-cyclohexyl-5-pyrazolone]",at least 20%,did not have a significant cytotoxic effect,,
2.3458,23.46 AU/mg/mL/cm,254 nm,318 nm,,,"COc1ccc2c(c1)c(CC1=NN(c3ccc(Cl)c(Cl)c3)C(=O)C1)c(C)n2C(=O)c1ccc(Cl)cc1 [Example 33, 3-[1-(4-chlorobenzoyl)-5-methoxy-2-methyl-3-indolylmethyl]-1-(3,4-dichlorophenyl)-5-pyrazolone]",at least 20%,did not have a significant cytotoxic effect,at least 25%,at least 10%
,,,,,48%,"COc1ccc2c(c1)c(CC1=NN(C(C)(C)C)C(=O)C1)c(C)n2C(=O)c1ccc(Cl)cc1 [Example 14, 3-[1-(4-chlorobenzoyl)-5-methoxy-2-methyl-3-indolylmethyl]-1-t-butyl-5-pyrazolone]",at least 20%,did not have a significant cytotoxic effect,,

Compound,Abs (at λmax) (Ultraviolet absorption),E = Extinction coefficient (Ultraviolet absorption),λmax (Ultraviolet absorption),λother (shoulder) (Ultraviolet absorption),inhibition at 6 µM (5-lipoxygenase; 6 μM compound),inhibition at 7.5 µM (5-lipoxygenase; 7.5 μM compound),reduction of β-amyloid peptide production as compared to control [1],cytotoxic effect on the 293 751 SWE cells (293 751 SWE cells),inhibition of the toxicity of β-amyloid peptide to human neuronal cells (human cortical neurons),inhibition of the toxicity of β-amyloid peptide to rat neuronal cells (rat cortical neurons)
"COc1ccc2c(c1)c(CC(=O)O)c(C)n2C(=O)c1ccc(Cl)cc1 [indomethacin, 1-(4-chlorobenzoyl)-5-methoxy-2-methyl-^1 H-indole-3-acetic acid, reference compound]",2.3996,23.99 AU/mg/mL/cm,246 nm,318 nm,,,,,,
